Results: ChEMBL document CHEMBL3988442, “University of Dundee, Small-Polar-MMV Screening Library” (2021)
“And” between values parts separate entries of the source, which are not always exact repeats. Identical values can stand only once.

What was measured:
[1] = biological target: T1, Histidine--tRNA ligase (Trypanosoma cruzi (strain CL Brener), UniProt Q4DA54); assay: Trypanosoma cruzi histidyl tRNA synthetase (Tc-HisRS); format: functional
T1 sequence (Q4DA54 whole entry): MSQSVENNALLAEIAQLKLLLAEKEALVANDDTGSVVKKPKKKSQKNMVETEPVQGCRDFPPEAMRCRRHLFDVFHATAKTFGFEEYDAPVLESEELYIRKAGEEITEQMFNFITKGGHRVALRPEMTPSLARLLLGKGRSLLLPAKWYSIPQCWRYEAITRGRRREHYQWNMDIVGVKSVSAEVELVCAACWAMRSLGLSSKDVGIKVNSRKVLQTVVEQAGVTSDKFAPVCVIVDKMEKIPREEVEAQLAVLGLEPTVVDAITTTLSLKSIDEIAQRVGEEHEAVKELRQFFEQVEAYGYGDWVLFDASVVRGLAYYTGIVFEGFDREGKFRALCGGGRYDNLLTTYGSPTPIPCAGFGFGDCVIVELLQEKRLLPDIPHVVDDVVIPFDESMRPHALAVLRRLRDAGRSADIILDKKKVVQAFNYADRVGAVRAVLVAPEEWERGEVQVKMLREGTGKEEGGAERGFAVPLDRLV

[2] = biological target: T2, Histidine--tRNA ligase (Leishmania infantum, UniProt A4I591); assay: Leishmania infantum Histidine tRNA synthetase (LdHisRS); format: functional
T2 sequence (A4I591 whole entry): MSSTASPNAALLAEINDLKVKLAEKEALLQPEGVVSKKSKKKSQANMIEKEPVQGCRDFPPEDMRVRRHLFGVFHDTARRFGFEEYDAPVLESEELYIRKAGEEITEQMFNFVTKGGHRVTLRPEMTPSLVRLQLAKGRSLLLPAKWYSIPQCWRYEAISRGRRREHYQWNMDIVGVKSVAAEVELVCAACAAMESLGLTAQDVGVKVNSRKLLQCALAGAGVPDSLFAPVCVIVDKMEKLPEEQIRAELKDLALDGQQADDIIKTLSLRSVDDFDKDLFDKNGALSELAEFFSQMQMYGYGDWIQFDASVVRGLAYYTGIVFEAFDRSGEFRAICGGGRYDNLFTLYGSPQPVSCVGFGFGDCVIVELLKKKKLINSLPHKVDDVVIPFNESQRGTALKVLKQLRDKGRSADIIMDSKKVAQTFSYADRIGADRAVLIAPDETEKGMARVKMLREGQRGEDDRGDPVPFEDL

[3] = biological target: ClpP1P2 (Mycobacterium tuberculosis (strain ATCC 25618 / H37Rv), UniProt P9WPC3+P9WPC5); assay: in vitro assay to detect presence of AMC directly proportional to the activity of ClpP1P2. GHDDI collaboration.; format: functional
ClpP1P2, sequence (P9WPC5 whole entry): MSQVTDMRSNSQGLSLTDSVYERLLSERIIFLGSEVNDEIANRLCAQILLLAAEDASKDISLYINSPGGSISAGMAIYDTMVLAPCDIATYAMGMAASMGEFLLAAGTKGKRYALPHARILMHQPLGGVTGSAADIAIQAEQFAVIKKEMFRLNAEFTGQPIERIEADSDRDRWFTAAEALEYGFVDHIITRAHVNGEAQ
ClpP1P2, sequence (P9WPC3 whole entry): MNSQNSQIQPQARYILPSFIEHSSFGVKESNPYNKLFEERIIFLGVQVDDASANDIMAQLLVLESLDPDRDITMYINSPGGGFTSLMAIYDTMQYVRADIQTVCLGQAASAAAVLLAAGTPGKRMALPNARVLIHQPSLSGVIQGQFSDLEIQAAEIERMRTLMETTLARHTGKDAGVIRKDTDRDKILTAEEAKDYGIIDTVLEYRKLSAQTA

[4] = microbe, parasite or virus in culture; conditions: Mycobacterium tuberculosis, 96 h, read-out: pIC50 (converted)
[5] = microbe, parasite or virus in culture; conditions: Mycobacterium tuberculosis, 72 h, read-out: pIC50 (converted)
[6] = system: Plasmodium falciparum; assay: Calibr Malaria Delayed Death Assay SOP; format: functional, organism-based; conditions: for IC50: Plasmodium falciparum
[7] = In vitro enzyme assay to detect hydrolysis of chlorophenol red-beta-D-[…] directly proportional to the number of Toxoplasma stably expressing beta-galactosidase; format: functional, organism-based, Toxoplasma gondii; conditions: Toxoplasma gondii

SMILES	IC50 [1]	IC50 [2]	further results
Cc1ccc(N2CCC3(CC2)COCCN(c2nccs2)C3)nn1	96.2 µM and 98.9 µM	33.4 µM and 28.7 µM	
Cc1nc(C)n(CC2CCCN2Cc2nc(C)c3ccccc3n2)n1 (stereo not given)	30.1 µM and 20 µM	31 µM and 34.3 µM	
Cn1cc(NC(=O)CCc2ccsc2)ccc1=O	13.3 µM and 13.9 µM	12.7 µM and 13.3 µM	
COC(=O)c1ccc(CNC(=O)Nc2ccc(=O)n(C)c2)cc1	3.6 µM and 3.34 µM	1.41 µM and 1.19 µM and 3.2 µM and 2.68 µM	
CNc1cc(-c2cccc(CN)c2)c2cc[nH]c2n1	27.7 µM and 26.3 µM	25.1 µM and 23.5 µM	IC50 [3]: > 100 µM
Cc1nc(CN(C)CC2CCCN2c2cccnn2)nc2ccccc12 (stereo not given)	30.3 µM and 27.2 µM	11.8 µM and 14.8 µM	IC50 [4]: > 50.1 µM; IC50 [5]: 10.8 µM
Cn1nc(Cn2ccnc2)c2c1CN(c1nccs1)C2	88.3 µM and 86.2 µM	20.5 µM and 14.5 µM	
COc1cccn(CC(=O)N2CCCC3(CCCCC3)C2)c1=O	4.24 µM and 4.44 µM	8.99 µM and 8.08 µM	
CC(C)(O)CCc1cccc(C(=O)NCc2nccs2)c1	> 100 µM		
Nc1nccc(C2CN(Cc3ccc(-c4ccccc4C(=O)O)o3)C2)n1	32.2 µM and 50.5 µM	25.3 µM and 25.4 µM	
O=C(NCc1cnn2cccnc12)c1cccc(CC2CCNCC2)c1	39.3 µM and 21.3 µM	17.6 µM and 18.9 µM	IC50 [4]: 45.6 µM; IC50 [5]: 41.5 µM
CCCn1cc(NC(=O)c2ccc(NC(=O)NC3CC3)cc2)ccc1=O	4.75 µM and 4.19 µM	5.84 µM and 7.08 µM	
COc1cccn(CC(=O)N2CCCC3(CCOCC3)C2)c1=O	5.31 µM and 6.94 µM	> 100 µM	
COCCN1CCC2(CCN(c3ncccn3)CC2)C1=O	> 100 µM		
Cc1nccc(C2CN(Cc3ccc(-c4ccccc4C(=O)O)o3)C2)n1	> 100 µM		
Cc1ccnc(C2CN(Cc3ccc(-c4ccccc4C(=O)O)o3)C2)n1	48.1 µM and 40.7 µM		
CCN(CC)CCNC(=O)CCc1c(C)nn(-c2ccc(Cl)cc2)c1C	> 100 µM		
Cc1nc(C)n(CC2CCCN2Cc2nc3ccccc3o2)n1 (stereo not given)	> 100 µM		
O=C(O)CNc1cc(-c2nccnc2N2CCCC2)c2cc[nH]c2n1	38.4 µM and 34.5 µM		
CC(C)(C)c1nc(CNC2CCCN(c3cccnn3)C2)no1 (stereo not given)	39.6 µM and 34.1 µM		IC50 [4]: > 50.1 µM; IC50 [5]: > 50.1 µM
Cc1cc(=O)n(C)cc1NC(=O)Cc1ccc(C(F)(F)F)cc1	5.22 µM and 5.49 µM	6.69 µM and 5.43 µM	

SMILES	IC50 [1]	IC50 [2]	further results
Cc1nc2ccccc2nc1CN(C)C1CCCN(c2cccnn2)C1 (stereo not given)	> 100 µM		
CC(C)(O)CCc1cccc(C(=O)NCc2cnn3cccnc23)c1	> 100 µM		
CCN1CCC2(CCN(c3ncccn3)CC2)C1=O	> 100 µM		
Cc1nc(C)n(CC2CCCN2Cc2nc3ccccc3n2C)n1 (stereo not given)	> 100 µM		
Cc1cc(CNC2CCCN(c3cccnn3)C2)no1 (stereo not given)	> 100 µM		
Cn1nc(Cn2ccnc2)c2c1CN(c1ncccn1)C2	> 100 µM		
O=C1N(CC2CC2)CCC12CCN(c1ncccn1)CC2	> 100 µM		
CNc1cc(-c2ccc(COCCN)cc2)c2cc[nH]c2n1	38.8 µM and 97 µM		IC50 [3]: > 100 µM
NCC1Cc2cccc(-c3nccc(N4CCC(O)CC4)n3)c2O1 (stereo not given)	> 100 µM		
COc1ccc(C)cc1CN1CCC(c2cc3ncccc3cn2)CC1.Cl	14.5 µM and 14.6 µM	17.6 µM and 23.6 µM	IC50 [4]: 25.8 µM; pIC50 [6]: 6.624; IC50 [6]: 0.264 µM; IC50 [5]: 19.4 µM
CC1CCN(c2ccc(C(=O)N3CCCC3c3nncn3C)cn2)CC1 (stereo not given)	> 100 µM		
CCCn1cc(NC(=O)c2ccc(N(C)CC)cc2)ccc1=O	> 100 µM		
c1ccc(CNc2ncc(CN3CCCN4CCC[C@H]4C3)cn2)cc1	39.6 µM and 38.3 µM		
Cc1nc(C)n(CC2CCCN2Cc2nc3ccccc3nc2C)n1 (stereo not given)	> 100 µM		
O=C(O)c1cncc(Cc2ccc(F)cc2)c1	> 100 µM		
Fc1ccc(F)c(CN2CCC(c3cnccn3)CC2)c1	> 100 µM		
Cc1cnc(N2CCC3(CCN(CC4CCCC4)C3=O)CC2)nc1	> 100 µM		
NCC1CCN(C2CCN(c3ccc(-c4ccco4)cc3)CC2)C1 (stereo not given)	25.1 µM and 18.7 µM	25.6 µM and 22.1 µM	IC50 [7]: 3.86 µM; pIC50 [6]: 6.504; IC50 [6]: 0.343 µM; IC50 [5]: 11.7 µM
CN(C)[C@H]1CCCCN(Cc2cnc(NCc3ccccc3)nc2)C1	> 100 µM		
CCN(CC)CCNC(=O)CCc1c(C)nn(-c2ccccc2Cl)c1C	> 100 µM		
Cc1ccc(N2CCOCC3(CCCN(c4ncc(F)cn4)C3)C2)nn1 (stereo not given)	> 100 µM		

SMILES	IC50 [1]	IC50 [2]	further results
Cc1nn(-c2ccccc2Cl)c(C)c1CCC(=O)NCCS(C)(=O)=O	> 100 µM		
CN1CCN2CCN(Cc3cnc(NCc4ccccc4)nc3)CC2C1 (stereo not given)	> 100 µM		
Nc1cc(-c2nccnc2N2CCCC2)c2cc[nH]c2n1	64.4 µM and 75.3 µM		
Cc1cnc(N2CCCC3(COCCN(c4ccc(C)nn4)C3)C2)nc1 (stereo not given)	> 100 µM		
Cc1ccc(N2CCCC3(COCCN(c4nccs4)C3)C2)nn1 (stereo not given)	> 100 µM		
Cc1nc(C)n(CC2CCCN2Cc2nc(N)c3ccccc3n2)n1 (stereo not given)	> 100 µM		
Cn1cc(NC(=O)N2CCCC2c2cccnc2)ccc1=O (stereo not given)	5.39 µM and 6.42 µM	5.84 µM and 5.74 µM	
O=C(O)c1cncc(Cc2ccccc2F)c1	> 100 µM		
c1ccc(-c2nc(CNC3CCCN(c4cccnn4)C3)no2)cc1 (stereo not given)	> 100 µM		
O=C(O)c1ccccc1-c1ccc(CN2CC(c3ccncn3)C2)o1	52.3 µM and 57.8 µM		
OCCNc1cc(-c2nccnc2N2CCCC2)c2cc[nH]c2n1	32.6 µM and 31 µM	16.2 µM and 14.9 µM	
NC1CCN(C2CCN(c3ccc(-c4ccco4)cc3)CC2)CC1	34.3 µM and 40.4 µM	23 µM and 22.9 µM	
Cc1nc(CN(C)CC2CCCN2c2cccnn2)oc1C (stereo not given)	> 100 µM		
c1ccc(CNc2ncc(CN3CC[C@H]4CC[C@@H](C3)N4)cn2)cc1	> 100 µM		
CNC1CCN(C2CCN(c3ccc(-c4ccco4)cc3)CC2)CC1	65.7 µM and 43.8 µM		IC50 [4]: > 50.1 µM; IC50 [5]: 24.6 µM
c1ccc(-c2noc(CNC3CCCN(c4cccnn4)C3)n2)nc1 (stereo not given)	> 100 µM	34.2 µM and 44.7 µM	
COCCc1noc(CNC2CCCN(c3cccnn3)C2)n1 (stereo not given)	> 100 µM		
CCN(CC)CCNC(=O)CCc1c(C)nn(-c2cccc(Cl)c2)c1C	> 100 µM		
COc1cccn(CC(=O)N2CCCC3(CCCO3)CC2)c1=O (stereo not given)	> 100 µM	> 100 µM	
c1cncc(-c2noc(CNC3CCCN(c4cccnn4)C3)n2)c1 (stereo not given)	> 100 µM		
